Reference: patent US12187663B2, “Thyromimetics with a biphenylmethane scaffold and their use” (INTERNATIONAL SOCIETY FOR DRUG DEVELOPMENT S.R.L., priority 2019, dated 2025)

Experiments:
AMPK = assay: Western blot of phosphorylated AMPK in HepG2 cells; assay type: cell-based, Human; conditions: twenty-four hours of treatment, dose dependent
Protocol: (§1) Human hepatocellular carcinoma cells (HepG2), obtained from American Type Culture Collection (Manassas, Va., USA), were cultured in low-glucose (LG) Dulbecco's modified Eagle's medium (DMEM) ([…], Invitrogen, Carlsbad, Calif., USA) or high-glucose (HG) DMEM ([…]) supplemented with 10% fetal bovine serum (FBS) and […] penicillin/streptomycin in an atmosphere of 5% CO2 at 37° C. These cells were then treated with tested compounds at various concentrations for 24 h. After treatments, cells were lysed in a buffer containing 20 mM Tris-HCl (pH 7.5), 0.9% NaCl, 0.2% Triton X-100, and 1% of the protease inhibitor cocktail (Sigma-Aldrich, Milan, Italy) and then stored at −80° C. for further western blot analysis. All the analyses were conducted on cells between the third and the sixth passage.
(§2) Proteins (20-30 μg) were separated on CriterionTGX™ gel (4-20%) and transferred on Immuno-PVDF membrane (Biorad, Milan, Italy) for 1 h. Blots were incubated with the primary antibody at 4° C. overnight. All the polyclonal antibodies for the protein of interest were purchased from Santa Cruz Biotechnology, Inc., Dallas, TX, USA. Then, blots were washed 3 times for 10 minutes with 1×TBS, 0.1% Tween® 20 and incubated for 1 h with secondary antibody (peroxidase-coupled anti rabbit in 1×TBS, 0.1% Tween®20). […] Band densitometric analysis was performed using Image Lab Software (Biorad, Milan, Italy).
(§3) The liver is a major organ responsible for most functions of cellular metabolism and a mediator between dietary and endogenous sources of energy for extrahepatic tissues. In this context, AMPK constitutes an intrahepatic energy sensor regulating physiological energy dynamics by limiting anabolism and stimulating catabolism, thus increasing ATP availability. Once activated, AMPK phosphorylates its downstream substrates to reduce ATP-consuming anabolic pathways, including cholesterol, fatty acid, and triacylglycerol synthesis, and increases ATP-generating catabolic pathways, including fatty acid oxidation and lipolysis. […]

TR-beta = target: T1, TR-beta (Homo sapiens, UniProt P10828); assay: LanthaScreen TR-FRET nuclear receptor coregulator assay, TR-beta; assay type: biochemical; conditions: coregulator peptide recruitment
T1 construct: In this assay Nuclear Receptor-LBD is added to ligand test compounds; purchased Invitrogen Corporation, Life Technologies
T1 sequence (P10828 217-461 limits assumed): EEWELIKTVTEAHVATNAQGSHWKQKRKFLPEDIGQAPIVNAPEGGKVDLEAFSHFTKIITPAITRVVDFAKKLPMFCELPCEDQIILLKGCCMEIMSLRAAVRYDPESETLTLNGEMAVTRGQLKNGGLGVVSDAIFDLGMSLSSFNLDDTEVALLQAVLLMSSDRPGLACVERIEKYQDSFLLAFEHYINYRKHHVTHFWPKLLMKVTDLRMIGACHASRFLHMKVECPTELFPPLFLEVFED
Protocol: (§4) The compounds of Formula (I,II) were tested in the biological test named LANTHASCREEN TR-FRET NUCLEAR RECEPTOR COREGULATOR ASSAY (Invitrogen Corporation, Life Technologies).
(§5) In this assay Nuclear Receptor-LBD is added to ligand test compounds followed by addition of a mixture of the fluorescein-coregulator peptide and terbium anti-GST antibody.

ACC = assay: Western blot of phosphorylated ACC in HepG2 cells; assay type: cell-based, Human; conditions: twenty-four hours of treatment
Protocol: as §1, §2, §3

Solubility in water = assay type: physicochemical
TR-alpha = target: T2, TR-alpha (Homo sapiens, UniProt P10827); assay: LanthaScreen TR-FRET nuclear receptor coregulator assay, TR-alpha; assay type: biochemical; conditions: for EC50: Nuclear Receptor TR-alpha, coregulator peptide recruitment; for interaction with TRalpha receptor: conclusion from TR-FRET data
T2 construct: In this assay Nuclear Receptor-LBD is added to ligand test compounds; purchased Invitrogen Corporation, Life Technologies
Protocol: as §4, §5

pancreatic acinar cells = assay: Pancreatic acinar cell proliferation (BrdU labeling index); assay type: in vivo, rats; conditions: one week; T3 4 mg/kg diet; GC1 50 μg/kg gavage once daily; TG68 and IS25 50 μg/kg in drinking water
Protocol: FIG. 9. […] BrdU (1 mg/ml) in drinking water was given all throughout the experimental time. […] LI was expressed as number of BrdU-positive acinar cell nuclei/100 nuclei. At least 2000 acinar cells per pancreas were scored. Results are expressed as means±SE of 3 to 5 rats per group. (one way ANOVA). ***Statistically significant from control; P<0.001.
BrdU (1 mg/ml) in drinking water was given all throughout the experimental time. […] LI was expressed as number of BrdU-positive acinar cell nuclei/100 nuclei. At least 2000 acinar cells per pancreas were scored.

HepG2 cells [1] = assay: Cell viability MTT assay; assay type: cell-based; conditions: 1-10 μM, 24 h
Protocol: HepG2 cells were seeded in a 96-well plate (Corning, USA) at a density of 1.0×10^4 cells/well with DMEM (200 μl/well), and then incubated for 24 h according to routine procedure. After being treated with test compounds (1-10 μM) and incubated for 24 h (8 wells for each sample), 20 μL/well MTT (5 g/L) was added to each well. The medium was then removed after 4 h incubation and 100 μL/well sodium dodecyl sulfate (SDS)-HCl solution was added to dissolve the reduced formazan product after incubation for 16 h at 37° C. Finally, the plate was read at 570 nm, using a micro-plate reader (Bio-Rad 680, USA).

HepG2 cells [2] = assay: Glycerol release (lipolysis); assay type: cell-based, Human; conditions: 24 hours treatment, 1 and 10 μM
Protocol: Samples of the media collected from HepG2 cells used to test lipid accumulation by Oil Red O staining (as detailed above), were assayed for glycerol levels using the Glycerol Assay Kit (Cell Based-ab133130-Abcam).

[3] = Serum levels of cholesterol, glucose, transaminases, amylase, lipase, bilirubin and triglycerides; assay type: in vivo, F-344 rats; conditions: rats, intragastric administration, 3 days

T2 sequence (P10827 163-410 isoform P10827-2 limits assumed, other chains not shown): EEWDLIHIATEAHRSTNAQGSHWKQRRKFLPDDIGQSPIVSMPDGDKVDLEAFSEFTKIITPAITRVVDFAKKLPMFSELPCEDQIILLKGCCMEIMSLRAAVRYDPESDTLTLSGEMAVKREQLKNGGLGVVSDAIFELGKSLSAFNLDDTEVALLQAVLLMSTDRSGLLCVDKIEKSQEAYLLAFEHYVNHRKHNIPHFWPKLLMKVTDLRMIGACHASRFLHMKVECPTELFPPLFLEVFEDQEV

| Structure (SMILES) | expression of p-AMPK (AMPK) | EC50 (TR-beta) [nM] | ACC phosphorylation (p-ACC) (ACC) | solubility in water (Solubility in water) | EC50 (TR-alpha) [nM] | interaction with TRalpha receptor (TR-alpha) | pancreatic acinar cell proliferation (BrdU-positive acinar cells) (pancreatic acinar cells) | cell viability (cell death with respect to control) (HepG2 cells [1]) | glycerol release / lipolysis (HepG2 cells [2]) | serum TGs level [3] |
| --- | --- | --- | --- | --- | --- | --- | --- | --- | --- | --- |
| Cc1cc(OCC(=O)O)cc(C)c1Cc1ccc(N)c(C(C)C)c1 [IS25, 2-(4-(4-amino-3-isopropylbenzyl)-3,5-dimethylphenoxy)acetic acid] | significantly (p<0.05) increased | 458 | significant ACC phosphorylation | very soluble in water | > 1000 | do not interact | mitogenic only for the liver and not for other tissues | did not significantly (p<0.05) cause cell death | induce lipolysis | significantly reduced |
| CC(=O)Nc1ccc(Cc2c(C)cc(OCC(=O)O)cc2C)cc1C(C)C [TG68, 2-(4-(4-acetamido-3-isopropylbenzyl)-3,5-dimethylphenoxy)acetic acid] | significantly (p<0.05) increased | > 1000 | significant ACC phosphorylation | very soluble in water | > 1000 | do not interact | mitogenic only for the liver and not for other tissues | did not significantly (p<0.05) cause cell death | induce lipolysis | significantly reduced |
